Patent EP4656642A1, “ESTROGEN RECEPTOR PROTEOLYSIS TARGETING CHIMERA COMPOUND AND USE THEREOF” (GAN & LEE PHARM CO., LTD, priority 2023, dated 2024)

Assays:
Format in all cases: cell-based
[1] = target: T1, ERα (Homo sapiens, UniProt P03372); test: Degradation of ERα in MCF-7 cells (immunoblotting, 4 h)
T1 sequence (P03372 1-595): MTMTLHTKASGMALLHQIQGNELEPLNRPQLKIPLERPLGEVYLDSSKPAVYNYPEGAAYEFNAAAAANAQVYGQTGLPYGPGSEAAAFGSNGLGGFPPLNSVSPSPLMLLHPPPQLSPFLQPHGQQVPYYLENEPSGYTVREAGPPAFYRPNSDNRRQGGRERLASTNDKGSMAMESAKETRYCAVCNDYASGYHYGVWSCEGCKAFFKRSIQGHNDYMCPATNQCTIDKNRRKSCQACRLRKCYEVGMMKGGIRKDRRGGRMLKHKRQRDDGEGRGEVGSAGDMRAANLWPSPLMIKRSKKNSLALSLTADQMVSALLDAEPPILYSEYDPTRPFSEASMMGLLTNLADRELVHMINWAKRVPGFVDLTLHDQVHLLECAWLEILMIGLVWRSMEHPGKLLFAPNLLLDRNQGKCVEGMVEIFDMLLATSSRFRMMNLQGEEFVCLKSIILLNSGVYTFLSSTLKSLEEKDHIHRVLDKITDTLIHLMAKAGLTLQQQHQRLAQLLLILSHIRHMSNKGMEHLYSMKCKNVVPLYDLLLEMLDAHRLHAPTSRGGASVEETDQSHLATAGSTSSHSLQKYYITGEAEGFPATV
Method in brief: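 MCF-7 cells treated 4 h at 37°C with compounds at 0.15-1000nM final. ERα in lysates measured by immunoblot, with band grayscale normalized to an internal reference protein. Degradation rate calculated against DMSO-treated control.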

[2] = test system: MCF-7 cells; test: Inhibition of cell proliferation of MCF-7 cells (CCK-8, 9 days); conditions: treated for 9 days, CCK-8 kit (Table 6)
Method in brief: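 MCF-7 cells seeded at 800 cells/well in DMEM with 10% FBS, exposed to a range of compound concentrations for 9 days at 37°C, 5% CO2. Viability read by CCK-8; IC50 derived for proliferation inhibition.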

[3] = target: T1, ERα; test: Degradation of ERα in T-47D cells (immunoblotting, 4 h); design: host or cells: T-47D
Method in brief: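 T-47D cells were treated with compound (final 0.15-1000 nM, DMSO) for 4 h at 37°C, 5% CO2. Cells were lysed in RIPA buffer with protease inhibitor, and ERα protein in the cleared lysate was measured by immunoblotting.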

Degradation rate (%) of ERα in MCF-7 cells ([1]; 1nM compound)	Degradation rate (%) of ERα in MCF-7 cells ([1]; 10nM compound)	IC50 [2]	Degradation rate (%) of ERα in T-47D cells ([3]; 1nM compound)	Degradation rate (%) of ERα in T-47D cells ([3]; 10nM compound)	SMILES
66%	88%	0.779 nM	67%	90%	CN(C)C(=O)[C@H]1CC(N2CCC3(CC2)COc2c3ccc3c2CN(C2CCC(=O)NC2=O)C3=O)CCN1C1CC2(CCN(c3ccc([C@@H]4c5ccc(O)cc5CC[C@@H]4c4ccccc4)cc3)CC2)C1 (some centres unmarked) [K32]
40%	75%	4370 nM	52%	82%	C[C@@H]1Cc2c(ccc3[nH]ncc23)C(c2ccc(N3CCC4(CCN(CC(=O)N5CCC6(CC5)COc5c6ccc6c5CN(C5CCC(=O)NC5=O)C6=O)C4)CC3)cn2)N1CC(F)(F)F (some centres unmarked) [J11]
63%	61%	11.7 nM	56%	55%	C[C@@H]1Cc2cc(O)ccc2[C@@H](c2c(F)cc(N3CCC(C(=O)N4CCC(N5CCC6(CC5)COc5c6ccc6c5CN(C5CCC(=O)NC5=O)C6=O)CC4)CC3)cc2F)N1CC(F)F (some centres unmarked) [I2]
19%	68%	9.05 nM	34%	83%	O=C1CCC(N2Cc3c(ccc4c3OCC43CCN(C4CC5CCCC(C4)N5C(=O)C4CCN(c5ccc([C@@H]6c7ccc(O)cc7CC[C@@H]6c6ccccc6)cc5)CC4)CC3)C2=O)C(=O)N1 (some centres unmarked) [D1]
42%	68%	186 nM	54%	82%	CN(C[C@H]1CC[C@H](C(=O)N2CCC3(CC2)COc2c3ccc3c2CN(C2CCC(=O)NC2=O)C3=O)CC1)[C@H]1CCN(c2ccc([C@@H]3c4ccc(O)cc4CC[C@@H]3c3ccccc3)cc2)C[C@H]1F (some centres unmarked) [D13]
29%	51%	43.5 nM	5%	56%	O=C1CCC(N2Cc3c(ccc4c3OCC43CCN(CC4CCC(N5CCN(c6ccc([C@@H]7c8ccc(O)cc8CC[C@@H]7c7ccccc7)cc6)CC5)CC4)CC3)C2=O)C(=O)N1 (some centres unmarked) [H15]
39%	62%	3.24 nM	48%	71%	O=C1CCC(N2Cc3c(ccc4c3OCC43CCN(C(=O)CN4CCC5(CCN(c6ccc([C@@H]7c8ccc(O)cc8CC[C@@H]7c7ccccc7)cc6)C5)C4)CC3)C2=O)C(=O)N1 (some centres unmarked) [H13]
37%	61%	16.6 nM	52%	76%	O=C1CCC(N2Cc3c(ccc4c3OCC43CCN(C(=O)CN4CCC5(CC4)CN(c4ccc([C@@H]6c7ccc(O)cc7CC[C@@H]6c6ccccc6)cc4)C5)CC3)C2=O)C(=O)N1 (some centres unmarked) [B17]
7%	16%	224 nM	-11%	14%	O=C1CCC(N2Cc3c(ccc4c3OCC43CCN(CC(=O)N4CCC5(CCC(C#Cc6ccc([C@@H]7c8ccc(O)cc8CC[C@@H]7c7ccccc7)cc6)CC5)CC4)CC3)C2=O)C(=O)N1 (some centres unmarked) [B29]
53%	61%	5320 nM	49%	74%	CN(CC(=O)N1CCC2(CC1)COc1c2ccc2c1CN(C1CCC(=O)NC1=O)C2=O)C1CCC2(CC1)CN(c1ccc([C@@H]3c4ccc(O)cc4CC[C@@H]3c3ccccc3)cc1)C2 (some centres unmarked) [H52]
64%	63%	0.103 nM	62%	79%	C[C@@H]1Cc2cc(O)ccc2C(c2c(F)cc(N3CCC4(CCN(CC(=O)N5CCC6(CC5)COc5c6ccc6c5CN(C5CCC(=O)NC5=O)C6=O)CC4)CC3)cc2F)N1CC(F)F (some centres unmarked) [F4]
26%	72%	4170 nM	55%	73%	O=C1CCC(N2Cc3c(ccc4c3OCC43CCN(CC(=O)N4CCC5(CCN(c6ccc([C@@H]7c8ccc(O)cc8CC[C@@H]7c7ccccc7)cc6)CC5)C4)CC3)C2=O)C(=O)N1 (some centres unmarked) [A73]
12%	66%	19.4 nM	51%	73%	C[C@@H]1Cc2c([nH]c3ccccc23)[C@@H](c2c(F)cc(N3CCC4(CCN(C(=O)CN5CCC6(CC5)COc5c6ccc6c5CN(C5CCC(=O)NC5=O)C6=O)C4)CC3)cc2F)N1CC(F)F (some centres unmarked) [A119]
6%	4%	830 nM	12%	45%	O=C1CCC(N2Cc3cc4c(cc3C2=O)C2(CCN(C3CCC5(CC3)CCN(c3ccc([C@@H]6c7ccc(O)cc7CC[C@@H]6c6ccccc6)cc3)CC5)CC2)CO4)C(=O)N1 (some centres unmarked) [L5]
6%	66%	19.2 nM	52%	82%	C[C@@H]1Cc2c([nH]c3ccccc23)[C@@H](c2c(F)cc(N3CCC(N4CC[C@@H](N5CCC6(CC5)COc5c6ccc6c5CN(C5CCC(=O)NC5=O)C6=O)[C@@H](F)C4)CC3)cc2F)N1CC(F)F (some centres unmarked) [D11]
21%	59%	75.2 nM	37%	74%	CN(C(=O)CN1CC2(CCc3cc4c(cc3O2)CN(C2CCC(=O)NC2=O)C4=O)C1)C1CCC2(CC1)CN(c1ccc([C@@H]3c4ccc(O)cc4CC[C@@H]3c3ccccc3)cc1)C2 (some centres unmarked) [K45]
50%	65%	5.08 nM	34%	63%	CC1Cc2c(ccc3[nH]ncc23)C(c2c(F)cc(N3CCC4(CC3)CC(N3CCC(N5CCC6(CC5)COc5c6ccc6c5CN(C5CCC(=O)NC5=O)C6=O)C(F)C3)C4)cc2F)N1CC(F)F (centres unmarked) [G22]
40%	34%	7360 nM	61%	46%	O=C1CCC(N2Cc3c(ccc4c3OCC43CCN(CC(=O)N4CCC(Oc5ccc([C@@H]6c7ccc(O)cc7CC[C@@H]6c6ccccc6)cc5)CC4)CC3)C2=O)C(=O)N1 (some centres unmarked) [H59]
57%	62%	17.5 nM	58%	70%	O=C1CCC(N2Cc3c(ccc4c3OCC43CCN(C(=O)C4CN(CC5CCN(c6ccc([C@@H]7c8ccc(O)cc8CC[C@@H]7c7ccccc7)cc6)CC5)C4)CC3)C2=O)C(=O)N1 (some centres unmarked) [K33]
35%	64%	4.29 nM	53%	57%	O=C1CCC(N2Cc3c(ccc4c3OCC43CCN(C(=O)[C@H]4CC[C@@H](N(CC5CC5)CC5CCN(c6ccc([C@@H]7c8ccc(O)cc8CC[C@@H]7c7ccccc7)cc6)CC5)CC4)CC3)C2=O)C(=O)N1 (some centres unmarked) [N11]
54%	85%	85 nM	73%	90%	O=C1CCC(N2Cc3c(ccc4c3OCC43CCN(CC(=O)N4CCC(OC5CCN(c6ccc([C@@H]7c8ccc(O)cc8CC[C@@H]7c7ccccc7)cc6)CC5)CC4)CC3)C2=O)C(=O)N1 (some centres unmarked) [K46]
28%	62%	199 nM	56%	83%	CCN(C(=O)CN1CCC2(CC1)COc1c2ccc2c1CN(C1CCC(=O)NC1=O)C2=O)C1CC2(CCN(c3ccc([C@@H]4c5ccc(O)cc5CC[C@@H]4c4ccccc4)cc3)CC2)C1 (some centres unmarked) [H55]
